Results published in ChEMBL document CHEMBL1201862, “PubChem BioAssay data set” (2004).
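Exposure lasted 48 hours, with cells grown in 96-well plates and compounds tested at five concentrations. GI50: concentration for 50% inhibition of growth.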 Calls of active or inactive are those of the source. Rule as the data show it: active = GI50 up to about 1.1 µM and inactive = higher.

Legend:
Experiment in all cases: growth of human tumour cells (NCI), 48 h
786-0 = test system: 786-0
UACC-257 = test system: UACC-257
SNB-75 = test system: SNB-75
NCI-H522 = test system: NCI-H522
NCI-H23 = test system: NCI-H23
K562 = test system: K562
HCC 2998 = test system: HCC 2998
Malme-3M = test system: Malme-3M
SR = test system: SR
SF-295 = test system: SF-295
SF-268 = test system: SF-268
A498 = test system: A498
SW-620 = test system: SW-620
UACC-62 = test system: UACC-62
RPMI-8226 = test system: RPMI-8226
MOLT-4 = test system: MOLT-4
COLO 205 = test system: COLO 205
SK-OV-3 = test system: SK-OV-3
DU-145 = test system: DU-145

Measured: GI50

CC1=C(C(=O)NCc2ccccc2)C(c2ccc(Cl)c(Cl)c2)C(C(=O)NCc2ccccc2)=C(C)N1
inactive: 786-0 > 100 µM | UACC-257 > 100 µM | SNB-75 > 100 µM | NCI-H522 > 100 µM | NCI-H23 > 100 µM | K562 > 100 µM | HCC 2998 > 100 µM | Malme-3M > 100 µM | SR > 100 µM | SF-295 > 100 µM | SF-268 > 100 µM | A498 > 100 µM | SW-620 > 100 µM | UACC-62 > 100 µM | RPMI-8226 > 100 µM | MOLT-4 > 100 µM

O=C1C2C(C(=O)N1c1ccccc1)C1([N+](=O)[O-])C=C3c4ccccc4N(C(=O)c4ccccc4)C32C2C(=O)N(c3ccccc3)C(=O)C21 (centres undefined)
inactive: 786-0 > 100 µM | UACC-257 > 100 µM | SNB-75 > 100 µM | NCI-H522 > 100 µM | COLO 205 > 100 µM | NCI-H23 > 100 µM | K562 > 100 µM | HCC 2998 > 100 µM | Malme-3M > 100 µM | SR > 100 µM | SF-295 > 100 µM | SF-268 > 100 µM | A498 > 100 µM | SK-OV-3 > 100 µM | SW-620 > 100 µM | UACC-62 > 100 µM | MOLT-4 > 100 µM

CC1CCCC(C(O)CC2CC(=O)N(c3ccccc3)C(=O)C2)C1=O (centres undefined)
inactive: 786-0 > 100 µM | UACC-257 > 100 µM | SNB-75 > 100 µM | NCI-H522 > 100 µM | COLO 205 > 100 µM | NCI-H23 > 100 µM | K562 > 100 µM | HCC 2998 > 100 µM | Malme-3M > 100 µM | SR > 100 µM | SF-295 > 100 µM | SF-268 > 100 µM | A498 > 100 µM | SK-OV-3 > 100 µM | SW-620 > 100 µM | UACC-62 > 100 µM | RPMI-8226 > 100 µM | MOLT-4 > 100 µM

N#CC1=C(Cl)NC(Cl)=C(C#N)C1c1ccc(Cl)cc1
inactive: 786-0 15.8 µM | UACC-257 18.3 µM | SNB-75 14.9 µM | NCI-H522 13 µM | COLO 205 16.5 µM | NCI-H23 17.9 µM | K562 11.9 µM | HCC 2998 19.1 µM | Malme-3M 21.3 µM | SR 21.7 µM | SF-295 27.2 µM | SF-268 18.7 µM | A498 32.4 µM | SK-OV-3 17.2 µM | SW-620 13.5 µM | UACC-62 16.7 µM | RPMI-8226 17.5 µM | MOLT-4 18.7 µM

COC(=O)c1c[nH]c2nc(N3CCOCC3)nn2c1=O
inactive: 786-0 > 100 µM | UACC-257 > 100 µM | SNB-75 > 100 µM | NCI-H522 > 100 µM | COLO 205 > 100 µM | NCI-H23 > 100 µM | K562 > 100 µM | HCC 2998 > 100 µM | Malme-3M > 100 µM | SR > 100 µM | SF-295 > 100 µM | SF-268 > 100 µM | A498 > 100 µM | SK-OV-3 > 100 µM | SW-620 > 100 µM | UACC-62 > 100 µM | RPMI-8226 > 100 µM | MOLT-4 > 100 µM

O=c1c2ccccc2nc(Cc2nc(-c3ccc(Cl)cc3)cs2)n1-c1ccc(Cl)cc1
inactive: 786-0 81.3 µM | UACC-257 67.6 µM | SNB-75 79.6 µM | NCI-H522 > 100 µM | COLO 205 49.5 µM | NCI-H23 56.8 µM | K562 5.01 µM | HCC 2998 80 µM | Malme-3M > 100 µM | SF-295 44.4 µM | SF-268 62.4 µM | A498 68.1 µM | SK-OV-3 > 100 µM | DU-145 55.8 µM | SW-620 91.8 µM | UACC-62 5.78 µM | RPMI-8226 23.8 µM | MOLT-4 30.9 µM

CC1(C)OC[C@@H]([C@H](O)C2C=CC(=O)S2)O1 (some centres undefined)
inactive: 786-0 22.9 µM | UACC-257 26.8 µM | SNB-75 45.5 µM | COLO 205 17.9 µM | NCI-H23 26.4 µM | K562 25.4 µM | HCC 2998 16.6 µM | Malme-3M 18.1 µM | SF-295 27.5 µM | SF-268 15.5 µM | A498 21.4 µM | SK-OV-3 34.6 µM | DU-145 21.2 µM | SW-620 32 µM | UACC-62 14.6 µM | RPMI-8226 18.4 µM | MOLT-4 32 µM

Cc1ccc(C)n1-c1ccccc1C1C=Cn2c3c1c(=O)c(OC(C)C)c(OC(C)C)c-3n[nH]c2=O (centres undefined)
inactive: 786-0 20.9 µM | UACC-257 32.6 µM | SNB-75 25.4 µM | NCI-H522 17 µM | COLO 205 13.1 µM | NCI-H23 53.8 µM | K562 12.2 µM | HCC 2998 23.6 µM | Malme-3M 18.7 µM | SF-295 27 µM | SF-268 59.2 µM | A498 > 100 µM | SK-OV-3 > 100 µM | DU-145 99.3 µM | SW-620 18.3 µM | UACC-62 39.4 µM | RPMI-8226 8.3 µM | MOLT-4 6.62 µM

CC(C)N(C(=O)C12C3C4C1C1C2C3C41I)C(C)C (centres undefined)
inactive: 786-0 > 100 µM | SNB-75 > 100 µM | NCI-H522 > 100 µM | COLO 205 > 100 µM | NCI-H23 > 100 µM | K562 > 100 µM | HCC 2998 > 100 µM | Malme-3M > 100 µM | SR > 100 µM | SF-295 > 100 µM | SF-268 > 100 µM | A498 > 100 µM | SK-OV-3 > 100 µM | SW-620 > 100 µM | UACC-62 > 100 µM | MOLT-4 > 100 µM

COC(=O)C1=C(O)c2cc3c(cc2[C@H](c2cc(OC)c(OC)c(OC)c2)C1)OCO3
inactive: 786-0 58.5 µM | UACC-257 34 µM | SNB-75 > 100 µM | COLO 205 19.3 µM | NCI-H23 41.7 µM | K562 22.5 µM | HCC 2998 1.23 µM | Malme-3M 38.1 µM | SR 30.8 µM | SF-295 37.5 µM | SF-268 51.5 µM | A498 22.5 µM | SK-OV-3 > 100 µM | SW-620 61.4 µM | UACC-62 5.74 µM | RPMI-8226 23 µM | MOLT-4 24.1 µM

C/C(=C\Cc1ccc(F)cc1)CCCCCC/C(C)=C/Cc1ccc(F)cc1
inactive: 786-0 7.13 µM | UACC-257 18.1 µM | SNB-75 18.7 µM | NCI-H522 6.59 µM | COLO 205 16.4 µM | NCI-H23 10.8 µM | K562 5.3 µM | SR 18.3 µM | SF-295 10 µM | SF-268 19.5 µM | SK-OV-3 37.8 µM | DU-145 14.2 µM | SW-620 17.9 µM | UACC-62 16.6 µM | MOLT-4 17.7 µM

CC1(Cl)CC(C)(/C=C/Cl)C(Cl)CC1Cl (centres undefined)
inactive: 786-0 15.4 µM | SNB-75 18.8 µM | NCI-H522 16.7 µM | NCI-H23 19.8 µM | K562 9.79 µM | HCC 2998 17.1 µM | Malme-3M 14.9 µM | SR 18.2 µM | SF-295 15.2 µM | SF-268 15.9 µM | A498 19.2 µM | SK-OV-3 38.4 µM | SW-620 15.7 µM | UACC-62 16.1 µM | MOLT-4 14.3 µM

C=CCN(C(=O)OC(C)(C)C)C1=CC2C(C)=CN(S(=O)(=O)c3ccccc3)C2C(OCc2ccccc2)=C1 (centres undefined)
inactive: 786-0 > 100 µM | UACC-257 > 100 µM | SNB-75 6.18 µM | NCI-H522 > 100 µM | COLO 205 > 100 µM | NCI-H23 > 100 µM | K562 7.59 µM | HCC 2998 > 100 µM | Malme-3M > 100 µM | SF-295 > 100 µM | SK-OV-3 > 100 µM | DU-145 > 100 µM | SW-620 > 100 µM | UACC-62 > 100 µM | RPMI-8226 > 100 µM | MOLT-4 > 100 µM

CC1(C)CC(=O)C(=CN2C(=O)CNC2=S)C(=O)C1
inactive: 786-0 > 100 µM | UACC-257 > 100 µM | SNB-75 > 100 µM | NCI-H522 > 100 µM | COLO 205 > 100 µM | NCI-H23 > 100 µM | HCC 2998 > 100 µM | SF-295 > 100 µM | SF-268 > 100 µM | SK-OV-3 > 100 µM | DU-145 > 100 µM | SW-620 > 100 µM | UACC-62 > 100 µM | MOLT-4 > 100 µM

N#C/C(=C\c1cc(Br)c(O)c(Br)c1)c1ccccn1
inactive: 786-0 49.5 µM | UACC-257 35.4 µM | SNB-75 > 100 µM | NCI-H522 64.9 µM | COLO 205 52.4 µM | NCI-H23 44 µM | K562 34.6 µM | HCC 2998 42.9 µM | Malme-3M 23.6 µM | SR > 100 µM | SF-295 16 µM | SF-268 93.8 µM | SK-OV-3 32.5 µM | DU-145 > 100 µM | SW-620 63.5 µM | UACC-62 37.1 µM | RPMI-8226 73.5 µM | MOLT-4 32.5 µM

Cc1c(C(=O)/C=C/c2ccccc2)[n+]([O-])c2ccccc2[n+]1[O-]
inactive: 786-0 17.2 µM | UACC-257 16.6 µM | SNB-75 23.6 µM | NCI-H522 6.62 µM | COLO 205 16.3 µM | NCI-H23 15.7 µM | K562 15.6 µM | HCC 2998 16.6 µM | Malme-3M 17.7 µM | SR 23.2 µM | SF-295 16.4 µM | SF-268 19.7 µM | A498 15.8 µM | SK-OV-3 20.1 µM | SW-620 14.8 µM | UACC-62 15.1 µM | RPMI-8226 17.8 µM | MOLT-4 21.3 µM
